Data from patent publication US11261189B2, “Substituted 2,4 diamino-quinoline as new medicament for fibrosis, autophagy and cathepsins B (CTSB), L (CTSL) and D (CTSD) related diseases” (Genoscience Pharma, priority 2018, dated 2022).

Tests used:
[1] = system: diethyl nitrosamine (DEN) cirrhotic rat model of liver fibrosis; experiment: DEN induced cirrhosis in rats, study 2: Sirius red quantification of liver fibrosis; assay type: in vivo; settings: group 4 (20/15): 20 mg/kg/day p.o. 4 weeks then 15 mg/kg/day 3 weeks; p=0.03
Procedure: A second in vivo experiment, with the same diethyl nitrosamine (DEN) cirrhotic rat animal model of liver fibrosis, was performed including compound 2-2 (base form of compound 2-3) with discontinued oral dosing schedule and compound 5-3 with daily oral exposure. Compounds 2-2 and 5-3 were administered p.o. by gavage (oral gavage) once daily during 7 weeks.
Rats were treated with DEN for 13 weeks (intra-peritoneal injections (i.p.) of 50 mg/kg/week) and then treated according to the Table 10 dosage schedule during 7 weeks. At the end of the study, all animals were sacrificed using CO2 and rat livers were collected for analysis. The quantification of the liver fibrotic tissue was evaluated by Sirius red staining of rat liver sections.
Group 1 contained 6 animals which were daily dosed (q.d.) by oral gavage (per os, p.o.) with the vehicle during 7 weeks.
Group 2 contained 8 animals and the corresponding animals were daily dosed (q.d.) by oral gavage (per os, p.o.) with compound 2-2 during 4 weeks at 20 mg/kg/day and then during 3 weeks at 20 mg/kg every 2 days (q.o.d.: quaque altera die, one day treated, on day untreated).
Group 3 contained 8 animals and the corresponding animals were daily dosed (q.d.) by oral gavage (per os, p.o.) with compound 2-2 during 3 weeks at 20 mg/kg/day, then 2 weeks of treatment free period, and were then daily dosed (q.d.) by oral gavage (per os, p.o.) with compound 2-2 during 2 weeks at 20 mg/kg/day.
Group 4 contained 8 animals and the corresponding animals were daily dosed (q.d.) by oral gavage (per os, p.o.) with compound 5-3 during 4 weeks at 20 mg/kg/day, and were then daily dosed (q.d.) by oral gavage (per os, p.o.) with compound 5-3 during 3 weeks at 15 mg/kg/day.
Compound 2-2 and 5-3 were formulated in water for injection acidified with hydrochloric acid to pH 4.

[2] = biological target: T1, cathepsin B (CTSB) (Homo sapiens, UniProt P07858); experiment: Cathepsin B (CTSB) catalytic activity in lysates of treated HepG2 cells (Z-RR-AMC substrate); assay type: cell-based; settings: HepG2; 7.5 μM, 6 hours and 24 hours
T1 construct: endogenous in cells; host or cells: HepG2
Procedure: (§1) Lysosomal functions was investigated in a hepatocellular carcinoma (HCC) cell line HepG2 after 6 hours and 24 hours of treatment with compound 2-3 (the hydrochloride salt form of compound 2-2) using functional assays of some lysosomal enzymes activity: two cysteine proteinases: cathepsin B (CTSB) and cathepsin L (CTSL), and one aspartic proteinase: cathepsin D (CTSD). Two sets of three concentrations of compound 2-3 (1 μM, 2 μM, and 4 μM for 6 hours, and 0.5 μM, 1 μM and 2 μM for 24 hours) were tested at least in triplicate and four independent experiments were performed. Salinomycin (7.5 μM for 6 hours and 24 hours) was used as a positive control.
(§2) The HepG2 cell line was maintained in DMEM (Dulbecco's Modified Eagle Media) high glucose (Cat #L0103-500, Dutscher) containing 1% penicillin-streptomycin (Cat #P06-07100, Dutscher) and 10% FBS (Fetal Bovine Serum) (Cat #11543407, Life Technologies). Cells were cultured at 37° C. with 5% CO2.
(§3) The day before the experiment, 6-well plates (Cat #353046, Dutscher) with 250,000 cells in 2.7 mL of medium per well were prepared.
(§4) Compound 2-3 was dissolved with filtrated H2O mQ to make a 10 mM stock solution and serial working solutions (10× solutions) were prepared with the diluent (=culture medium with 0.4% H2O mQ) at 5 μM, 10 μM, 20 μM and 40 μM: the “dilution 1” is made from the 10 mM stock solution in the culture medium and the following serial dilutions were made in the diluent to maintain a constant percentage of H2O.
(§5) Salinomycin [CAS 53003-10-4] was used as positive control and was dissolved with methanol to make a 10 mM stock solution and a 10× solution at 75 μM was prepared with the culture medium.
(§6) 300 μL of compound 2-3 10× solutions (solutions at 10 μM, 20 μM and 40 μM for 6 hours of treatment and solutions at 5 μM, 10 μM and 20 μM for 24 hours of treatment) or 300 μL of diluent (=non-treated (NT) condition) or 300 μL of Salinomycin 10× solution were dispensed in the appropriate wells (4 wells/condition). After cells treatment, 6-well plates were returned to incubator for 6 hours or 24 hours.
(§7) After 6 hours or 24 hours of cells treatment, the medium was removed from each well. The cells were carefully rinsed with PBS (phosphate-buffered saline, Cat #L0615-500, Dutscher) and detached with 500 μL per well of a trypsin solution. After 5 min of trypsin (Cat #L0930-100, Dutscher) incubation at 37° C., 800 μL of medium was added per well and transferred to a 1.5 mL tube. Then, 800 μL of PBS was used to rinse each well and the corresponding solution was pooled in each corresponding 1.5 mL tube. […] Total protein concentration was assessed using the Bradford reagent (Cat #B6916-500ML, Sigma-Aldrich) and cellular lysates were stored at −80° C. until catalytic activity measurement. […]

[3] = biological target: T2, cathepsin D (CTSD) (Homo sapiens, UniProt P07339); experiment: Cathepsin D (CTSD) peptidase activity in lysates of treated HepG2 cells (MOCAc quenched fluorogenic substrate); assay type: cell-based; settings: HepG2; 7.5 μM, 6 hours and 24 hours
T2 construct: cell lysates (1 μg of total proteins) were pre-incubated with citrate buffer pH 4.0; endogenous in cells; host or cells: HepG2
T2 sequence (P07339 65-412): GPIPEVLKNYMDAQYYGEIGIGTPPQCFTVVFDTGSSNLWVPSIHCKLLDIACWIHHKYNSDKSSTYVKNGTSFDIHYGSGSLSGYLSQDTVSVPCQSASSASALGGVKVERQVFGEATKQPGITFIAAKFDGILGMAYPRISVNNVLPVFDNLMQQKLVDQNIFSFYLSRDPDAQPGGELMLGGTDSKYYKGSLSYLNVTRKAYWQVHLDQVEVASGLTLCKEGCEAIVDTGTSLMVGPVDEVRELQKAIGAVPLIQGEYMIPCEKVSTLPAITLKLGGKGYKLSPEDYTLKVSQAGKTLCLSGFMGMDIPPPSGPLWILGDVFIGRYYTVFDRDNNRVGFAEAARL
Procedure: as §1, §2, §3, §4
Salinomycin [CAS 53003-10-4] was used as positive control and was dissolved with methanol to make a 10 mM stock solution and a 10× solution at 75 μM was prepared with the culture medium. […]
After 6 hours or 24 hours of cells treatment, the medium was removed from each well. […] Total protein concentration was assessed using the Bradford reagent (Cat #B6916-500ML, Sigma-Aldrich) and cellular lysates were stored at −80° C. until catalytic activity measurement. […]

[4] = system: cathepsins B and L (CTSB/L); experiment: Overall cathepsins B and L (CTSB/L) peptidase activity in lysates of treated HepG2 cells (Z-FR-AMC substrate); assay type: cell-based; settings: HepG2; 7.5 μM, 6 hours and 24 hours
Procedure: as §1, §2, §3, §4, §5, §6, §7

[5] = system: diethyl nitrosamine (DEN) cirrhotic rat model of liver fibrosis; experiment: DEN induced cirrhosis in rats, study 1: Sirius red quantification of liver fibrosis; assay type: in vivo; settings: group 2: Sorafenib 10 mg/kg/day p.o. q.d., 6 weeks after 14 weeks DEN
From the text: This animal model allows developing an extensive liver fibrosis, leading to a compensated liver cirrhosis with a multifocal hepatocarcinoma (HCC) after 14 weeks of induction (Schiffer, E. et al. Hepatology 2005 (41), 307-314). The DEN cirrhotic rat animal model was used here as a specific animal model of liver fibrosis.
Forty two Fisher 344 male rat (obtained from Charles River Laboratories France, including spare animals), weighting approximately 280 g at the start of the study, were randomized in 5 groups of 8 (groups 1, 2, 3 and 5) or 6 (group 4) animals and housed with 3 animals per cage, given free access to food and water and allowed to acclimate for at least 5 days prior to test initiation.
The DEN cirrhotic rat model was obtained after 14 weekly intraperitoneal injections of DEN (intra-peritoneal injections (i.p.) of DEN at 50 mg/kg/week). The animals were then treated according to Table 9 during 6 weeks. In this in vivo experiment, the anti-fibrotic activity of compound 2-3 was evaluated in liver fibrosis animal model, alone or in combination with Sorafenib (a multikinase inhibitor of Raf-1, B-Raf, VEGFR-2, VEGFR3, PDGFRβ, Flt3 and c-Kit). After 6 weeks of treatment, all animals were sacrificed using CO2 and rat livers were collected for analysis. The quantification of the liver fibrotic tissue was evaluated by Sirius red staining of rat liver sections.
Group 1 contained 8 animals which were daily dosed (q.d.) by oral gavage (per os, p.o.) with the vehicle during 6 weeks.
Group 2 contained 8 animals which were daily dosed (q.d.) by oral gavage (per os, p.o.) with Sorafenib at 10 mg/kg/day during 6 weeks.
Group 3 contained 8 animals which were daily dosed (q.d.) by oral gavage (per os, p.o.) with compound 2-3 at 15 mg/kg/day during 6 weeks.
Group 4 contained 6 animals which were daily dosed (q.d.) by oral gavage (per os, p.o.) with compound 2-3 at 15 mg/kg/day in combination with Sorafenib at 10 mg/kg/day during 6 weeks.
Group 5 contained 8 animals which were daily dosed (q.d.) by oral gavage (per os, p.o.) with compound 2-3 at 30 mg/kg/day during 6 weeks. […]

CC(C)(C)NC1CCN(c2cc(NCc3ccc(F)cc3)nc3ccccc23)CC1 [5-3, 2-(4-fluorobenzylamino)-4-(4-tert-butylaminopiperidin-1-yl)-quinoline]
reduction of the level of collagen fibers deposition (Sirius red) compared to the control group [1]: 24%

CC[C@@H](C(=O)[C@@H](C)[C@@H](O)[C@H](C)[C@@H]1O[C@@H]([C@@H](CC)C(=O)O)CC[C@@H]1C)[C@H]1O[C@]2(C=C[C@@H](O)[C@]3(CC[C@@](C)([C@H]4CC[C@](O)(CC)[C@H](C)O4)O3)O2)[C@H](C)C[C@@H]1C [Salynomycin, Salinomycin, reference compound]
proteolytic activity of cathepsin B (positive control) [2]: significantly decreased
proteolytic activity of cathepsin D (positive control) [3]: significantly decreased
proteolytic activity of cathepsins B/L (positive control) [4]: significantly decreased

CNC(=O)c1cc(Oc2ccc(NC(=O)Nc3ccc(Cl)c(C(F)(F)F)c3)cc2)ccn1 [Sorafenib, reference compound]
reduction of the level of collagen fibers deposition (Sirius red) compared to the control group [5]: 13.6%
